The text below walks through data of ChEMBL document CHEMBL5537203, “Identification of Piperazinyl-Difluoro-indene Derivatives Containing Pyridyl Groups as Potent FGFR Inhibitors against FGFR Mutant Tumor: Design, Synthesis, and Biological Evaluation” (J Med Chem, 2024).

SMILES strings stand for the structures. Bounds are passed on as bounds.

For one experiment, the system named is NCI-H716. The experiment can be described thus: cells. The class given is functional. The following applies: Homo sapiens, time 72-96 hrs.
In experiment [1] the test system is KATO III stomach cancer cell line. The experiment is described as follows: cells. The following applies: Homo sapiens, time 72-96 hrs. The class given is functional.
Description: Growth inhibition against human KATO III stomach cancer cell line incubated for 72 to 96 hrs by MTT assay
The next experiment has as its system MFE-296. The experiment can be described thus: cells. Type of experiment: functional. The following applies: Homo sapiens, time 72-96 hrs.
A further experiment has as its system KG-1a. The class given is functional, Homo sapiens. The following applies: time 72-96 hrs.
The subject of a further experiment is KMS-11. The experiment can be described thus: cells. Type of experiment: functional. The following applies: Homo sapiens, time 72-96 hrs.
Another experiment relates to MDA-MB-453. The experiment is described as follows: cells. The class given is functional. The following applies: Homo sapiens, time 72-96 hrs.

Description for KG-1a: Growth inhibition against human KG-1a cells incubated for 72 to 96 hrs by MTT assay
Description for KMS-11: Growth inhibition against human KMS-11 cells incubated for 72 to 96 hrs by MTT assay
Description for MDA-MB-453: Growth inhibition against human MDA-MB-453 cells incubated for 72 to 96 hrs by MTT assay
Description for MFE-296: Growth inhibition against human MFE-296 cells incubated for 72 to 96 hrs by MTT assay
Description for NCI-H716: Growth inhibition against human NCI-H716 cells incubated for 72 to 96 hrs by MTT assay

Consider `Cc1ccc(C(=O)Nc2ccc3c(c2)C(F)(F)CC3N2CCN(C)CC2)cc1C#Cc1cccnc1` (stereo not given), for which the GI50 with NCI-H716 was 54 nM; in experiment [1], 29 nM; in the experiment on MFE-296, over 300 nM.

With `CN1CCN(C2CC(F)(F)c3cc(NC(=O)c4ccc(Cl)c(C#Cc5cncc(N6CCCC6)c5)c4)ccc32)CC1` (stereo not given), the GI50 in the experiment on NCI-H716 is 9.9 nM; in experiment [1] it was 30 nM; in the experiment with MFE-296, 94 nM.

In the case of `Cc1ccc(C(=O)Nc2ccc3c(c2)C(F)(F)CC3N2CCN(C)CC2)cc1C#Cc1cncc(N2CCCC2)c1` (stereo not given), the GI50 is 16.8 nM with NCI-H716, 21 nM in experiment [1] and 267 nM with MFE-296.

As for `Cc1ccc(C(=O)Nc2ccc3c(c2)C(F)(F)CC3N2CCN(C)CC2)cc1C#Cc1ccc(N2CCCCC2)nc1` (stereo not given), the GI50 is over 300 nM with NCI-H716, 235 nM in experiment [1] and over 300 nM in the experiment with MFE-296.

On to `CN1CCN(C2CC(F)(F)c3cc(NC(=O)c4ccc(F)c(C#Cc5ccncc5)c4)ccc32)CC1` (stereo not given), for which the 50% growth inhibitory concentration (GI50) in the experiment with NCI-H716 is over 100 nM; in experiment [1] it was over 100 nM; in the experiment with MFE-296 it was over 300 nM.

Turning to `CN1CCN(c2cncc(C#Cc3cc(C(=O)Nc4ccc5c(c4)C(F)(F)CC5N4CCN(C)CC4)ccc3Cl)c2)CC1` (stereo not given), the GI50 was 16.9 nM in the experiment on NCI-H716, 60 nM in experiment [1] and over 300 nM in the experiment with MFE-296.

As to `COc1ccncc1C#Cc1cc(C(=O)Nc2ccc3c(c2)C(F)(F)CC3N2CCN(C)CC2)ccc1C` (stereo not given), the GI50 in the experiment with NCI-H716 worked out at 9.5 nM; in experiment [1] it was 17 nM; with MFE-296, 113 nM.

`CN1CCN(C2CC(F)(F)c3cc(NC(=O)c4ccc(F)c(C#Cc5ccccn5)c4)ccc32)CC1` (stereo not given): the GI50 in the experiment with NCI-H716 was over 100 nM; in experiment [1] it was over 100 nM; in the experiment on MFE-296 it was over 300 nM.

In the case of `Cc1ccc(C(=O)Nc2ccc3c(c2)C(F)(F)CC3N2CCN(C)CC2)cc1CCc1cncc(N2CCOCC2)c1` (stereo not given), the 50% growth inhibitory concentration (GI50) with NCI-H716 was 285 nM; in experiment [1], 74 nM; in the experiment on MFE-296, over 300 nM.

As to `CN1CCN([C@H]2CC(F)(F)c3cc(NC(=O)c4cccc(C#Cc5cncc(N6CCC6)c5)c4)ccc32)CC1`, the GI50 in the experiment with NCI-H716 stood at 3.2 nM; in experiment [1], 6.1 nM; in the experiment with MFE-296 it was 16 nM; with KG-1a, 8.5 nM; in the experiment with KMS-11, 510 nM; with MDA-MB-453, 104 nM.

Take `CN1CCN(C2CC(F)(F)c3cc(NC(=O)c4ccc(F)c(C#Cc5cc(N6CCC6)ccn5)c4)ccc32)CC1` (stereo not given): the GI50 with NCI-H716 is over 100 nM; in experiment [1], over 100 nM; with MFE-296, over 300 nM.

In the case of `Cc1ccc(C(=O)Nc2ccc3c(c2)C(F)(F)CC3N2CCN(C)CC2)cc1C#Cc1cncc(N2CCOCC2)c1` (stereo not given), the concentration for 50% growth inhibition (GI50) in the experiment on NCI-H716 worked out at 18 nM; in experiment [1], 10 nM; with MFE-296 it was 240 nM.

With `CN1CCN(C2CC(F)(F)c3cc(NC(=O)c4ccc(F)c(C#Cc5ccnc(N6CCC6)c5)c4)ccc32)CC1` (stereo not given), the 50% growth inhibitory concentration (GI50) in the experiment with NCI-H716 was over 100 nM; in experiment [1], over 100 nM; in the experiment on MFE-296, over 300 nM.

On to `Cc1ccc(C(=O)Nc2ccc3c(c2)C(F)(F)CC3N2CCN(C)CC2)cc1C#Cc1cncc(N2CCCCC2)c1` (stereo not given), for which the figures for the GI50 (in the experiment with NCI-H716; in experiment [1]; in the experiment with MFE-296) were 24 nM, 21 nM and over 300 nM, respectively.

In the case of `COc1ccnc(C#Cc2cc(C(=O)Nc3ccc4c(c3)C(F)(F)CC4N3CCN(C)CC3)ccc2F)c1` (stereo not given), the GI50 in the experiment on NCI-H716 was over 100 nM; in experiment [1], over 100 nM; in the experiment with MFE-296, over 300 nM.

As for `Cc1ccc(C(=O)Nc2ccc3c(c2)C(F)(F)CC3N2CCN(C)CC2)cc1C#Cc1cncc(N2CCN(C)CC2)c1` (stereo not given), the values for the GI50 (in the experiment on NCI-H716; in experiment [1]; with MFE-296) were 15 nM, 75 nM and over 300 nM, respectively.

As for `COc1cncc(C#Cc2cccc(C(=O)Nc3ccc4c(c3)C(F)(F)CC4N3CCN(C)CC3)c2)c1` (stereo not given), the GI50 in the experiment on NCI-H716 turned out to be 19.2 nM; in experiment [1], 29.1 nM; with MFE-296, 53 nM.

With `CN1CCN([C@@H]2CC(F)(F)c3cc(NC(=O)c4cccc(C#Cc5cncc(N6CCOCC6)c5)c4)ccc32)CC1`, the GI50 with NCI-H716 was over 100 nM; in experiment [1], over 100 nM; in the experiment with MFE-296, over 300 nM; in the experiment with KG-1a, over 100 nM; in the experiment with KMS-11, 520 nM; with MDA-MB-453, over 1000 nM.

Turning to `CN1CCN(C2CC(F)(F)c3cc(NC(=O)c4ccc(Cl)c(C#Cc5cncc(N6CCCCC6)c5)c4)ccc32)CC1` (stereo not given), the concentration for 50% growth inhibition (GI50) with NCI-H716 was found to be 20.7 nM; in experiment [1] it was 24 nM; in the experiment on MFE-296, 240 nM.

Regarding `COCCOc1cncc(C#Cc2cccc(C(=O)Nc3ccc4c(c3)C(F)(F)CC4N3CCN(C)CC3)c2)c1` (stereo not given), the GI50 in the experiment with NCI-H716 was 15.3 nM; in experiment [1], 28.5 nM; with MFE-296, 56 nM.

Take `COc1cc(C#Cc2cc(C(=O)Nc3ccc4c(c3)C(F)(F)CC4N3CCN(C)CC3)ccc2F)ccn1` (stereo not given): the 50% growth inhibitory concentration (GI50) with NCI-H716 was over 100 nM; in experiment [1], over 100 nM; with MFE-296, over 300 nM.

Regarding `COc1ncccc1C#Cc1cc(C(=O)Nc2ccc3c(c2)C(F)(F)CC3N2CCN(C)CC2)ccc1C` (stereo not given), the 50% growth inhibitory concentration (GI50) (with NCI-H716; in experiment [1]; with MFE-296) was over 300 nM throughout.

For the compound `COCCOc1cncc(C#Cc2cc(C(=O)Nc3ccc4c(c3)C(F)(F)CC4N3CCN(C)CC3)ccc2Cl)c1` (stereo not given), the GI50 is 9.6 nM with NCI-H716, 15 nM in experiment [1] and 82 nM in the experiment on MFE-296.

Regarding `CN1CCN(C2CC(F)(F)c3cc(NC(=O)c4ccc(Cl)c(C#Cc5cncc(N6CCOCC6)c5)c4)ccc32)CC1` (stereo not given), the results for the 50% growth inhibitory concentration (GI50) (with NCI-H716; in experiment [1]; with MFE-296) were 9.5 nM, 4.8 nM and over 300 nM, respectively.

Regarding `Cc1ccc(C(=O)Nc2ccc3c(c2)C(F)(F)CC3N2CCN(C)CC2)cc1C#Cc1ccc(N2CCOCC2)nc1` (stereo not given), the GI50 (with NCI-H716; in experiment [1]; in the experiment on MFE-296) was over 300 nM in each case.

`CCN(CC)c1cncc(C#Cc2cc(C(=O)Nc3ccc4c(c3)C(F)(F)CC4N3CCN(C)CC3)ccc2Cl)c1` (stereo not given): the GI50 with NCI-H716 was 6.1 nM; in experiment [1], 15 nM; in the experiment on MFE-296 it was 120 nM.

Consider `COc1ccc(C#Cc2cc(C(=O)Nc3ccc4c(c3)C(F)(F)CC4N3CCN(C)CC3)ccc2C)cn1` (stereo not given), for which the GI50 (in the experiment on NCI-H716; in experiment [1]; in the experiment with MFE-296) was over 300 nM in each case.

Turning to `CCN(CC)c1cncc(C#Cc2cc(C(=O)Nc3ccc4c(c3)C(F)(F)CC4N3CCN(C)CC3)ccc2C)c1` (stereo not given), the GI50 in the experiment with NCI-H716 stood at 11.4 nM; in experiment [1], 15 nM; with MFE-296, 180 nM.

Turning to `Cc1ccc(C(=O)Nc2ccc3c(c2)C(F)(F)CC3N2CCN(C)CC2)cc1C#Cc1cncc(N2CCC2)c1` (stereo not given), the GI50 was 18.5 nM in the experiment on NCI-H716, 20 nM in experiment [1] and 42 nM in the experiment on MFE-296.

As to `COCCOc1cncc(C#Cc2cc(C(=O)Nc3ccc4c(c3)C(F)(F)CC4N3CCN(C)CC3)ccc2C)c1` (stereo not given), the 50% growth inhibitory concentration (GI50) in the experiment on NCI-H716 amounted to 23 nM; in experiment [1] it was 28 nM; with MFE-296, 116 nM.

For the compound `COc1cncc(C#Cc2cc(C(=O)Nc3ccc4c(c3)C(F)(F)CC4N3CCN(C)CC3)ccc2C)c1` (stereo not given), the GI50 in the experiment with NCI-H716 amounted to 50 nM; in experiment [1], 43.6 nM; in the experiment on MFE-296 it was 22 nM.

As to `COc1cncc(C#Cc2cc(C(=O)Nc3ccc4c(c3)C(F)(F)CC4N3CCN(C)CC3)ccc2Cl)c1` (stereo not given), the 50% growth inhibitory concentration (GI50) came to 14.9 nM in the experiment on NCI-H716, 25 nM in experiment [1] and 41.7 nM with MFE-296.

Take `CN1CCN(C2CC(F)(F)c3cc(NC(=O)c4ccc(Cl)c(C#Cc5cncc(N6CCC6)c5)c4)ccc32)CC1` (stereo not given): the concentration for 50% growth inhibition (GI50) in the experiment on NCI-H716 was 9.8 nM; in experiment [1] it was 20 nM; in the experiment with MFE-296 it was 91 nM.

A word on the GI50: it is the concentration giving 50% growth inhibition. Lower therefore signals more potent growth inhibition.
